The supplement of paper PMC6965134
± gives the standard deviation of the averaged measurements. One block for each compound: values may come before it.

Assay: TIMS collisional cross section (CCS, N2) of the lipid ion; higher = larger ion cross section
Details: ionization mode: negative, one isomer drawn
Procedure: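 Lipid extracts of human plasma (NIST SRM 1950), mouse liver or HeLa cells were separated by nanoflow C18 LC (30 min gradient) and analysed by TIMS-PASEF on a timsTOF Pro. Ion mobility was calibrated with the Agilent tuning mix (negative mode ions) and converted to collisional cross sections (Mason–Schamp, N2).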

[1] = sample type: Human plasma, ion (formula + adduct): [C43H76NO8P-H] 1-
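Note: lipids from MTBE extraction, five replicate injections per sample, 100 ms TIMS ramp spanning 0.6–1.95 Vs/cm², lipid identity assigned from PASEF MS/MS spectra.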

Structure (SMILES): CCCCC/C=C/C=C\CCCCCCCC(=O)O[C@H](COC(=O)CCCCCCC/C=C\C/C=C/CCCCC)COP(=O)([O-])OCC[N+](C)(C)C [PC 18:2_17:2]
- TIMS collisional cross section (sample type: Mouse Liver, ion (formula + adduct): [C43H78NO8P+HCOO] 1-): 289.3 Å²

Structure (SMILES): CCCCC/C=C\C/C=C\C/C=C\C/C=C\CCCC(=O)OC[C@@H](O)COP(=O)(O)OCCN [LPE 20:4_0:0]
- TIMS collisional cross section (sample type: Mouse Liver, ion (formula + adduct): [C25H44NO7P-H] 1-): 217.3 Å²

Structure (SMILES): CCCCCCCCCCCCCCCC(=O)O[C@H](COC(=O)CCCCCCCCCCC)COP(=O)(O)OC[C@H](N)C(=O)O [PS 12:0@_16:0]
- TIMS collisional cross section (sample type: Mouse Liver, ion (formula + adduct): [C34H66NO10P-H] 1-): 262.8 Å²

Structure (SMILES): CCCCCCCCCCCCCCCC(=O)OC[C@H](COP(=O)([O-])OCC[N+](C)(C)C)OC(=O)CCCCCCCC=O [Oxidized PC 16:0_9:0@]
- TIMS collisional cross section (sample type: Human plasma, ion (formula + adduct): [C33H64NO9P+HCOO] 1-): 267.18 ± 0.29 Å²
- TIMS collisional cross section (sample type: Human plasma, ion (formula + adduct): [C33H64NO9P-CH3] 1-): 253.8 Å²
- TIMS collisional cross section (sample type: Mouse Liver, ion (formula + adduct): [C33H64NO9P+HCOO] 1-): 267.1 ± 0.42 Å²

Structure (SMILES): CC/C=C\C/C=C\C/C=C\C/C=C\CCCCCCC(=O)O[C@H](COCCCCCCCC/C=C\CCCCCC)COP(=O)([O-])OCC[N+](C)(C)C [PC O- 16:1_20:4]
- TIMS collisional cross section (sample type: Human plasma, ion (formula + adduct): [C44H80NO7P+HCOO] 1-): 292.2 Å²

Structure (SMILES): CCCCCCCCCCCCCC(=O)OC[C@@H](O)COP(=O)([O-])OCC[N+](C)(C)C [LPC 14:0_0:0]
- TIMS collisional cross section (sample type: Human plasma, ion (formula + adduct): [C22H46NO7P+HCOO] 1-): 231.1 ± 0.42 Å²
- TIMS collisional cross section (sample type: Human plasma, ion (formula + adduct): [C22H46NO7P-CH3] 1-): 219.7 Å²
- TIMS collisional cross section (sample type: Mouse Liver, ion (formula + adduct): [C22H46NO7P+HCOO] 1-): 231.3 Å²

Structure (SMILES): CC/C=C\C/C=C\C/C=C\C/C=C\CCCCC(=O)OC[C@H](COP(=O)(O)OCCN)OC(=O)CCCCCCCCCCCCCCCCC [PE 18:4_18:0@]
- TIMS collisional cross section (sample type: Human plasma, ion (formula + adduct): [C41H74NO8P+AcO] 1-): 282.4 Å²

Structure (SMILES): CC/C=C\C/C=C\C/C=C\CCCCCCCC(=O)O[C@H](COC(=O)CCCCCCCCCCCCC)COP(=O)([O-])OCC[N+](C)(C)C [PC 14:0@_18:3]
- TIMS collisional cross section (sample type: Human plasma, ion (formula + adduct): [C40H74NO8P+HCOO] 1-): 284.9 Å²

Structure (SMILES): CCCCC/C=C\C/C=C\C/C=C\C/C=C\CCCC(=O)O[C@H](COC(=O)CCCCCCCCCCCCCC)COP(=O)([O-])OCC[N+](C)(C)C [PC 15:0_20:4]
- TIMS collisional cross section (sample type: Human plasma, ion (formula + adduct): [C43H78NO8P+HCOO] 1-): 291 Å²

Structure (SMILES): CCCCC/C=C\C/C=C\CCCCCCCC(=O)O[C@H](COC(=O)CCCCCCCCCCCCCCCC)COP(=O)([O-])OCC[N+](C)(C)C [PC 17:0_18:2]
- TIMS collisional cross section (sample type: Mouse Liver, ion (formula + adduct): [C43H82NO8P+HCOO] 1-): 293.3 Å²

Structure (SMILES): CCCCCCCCCCCCCCCCCC(=O)O[C@H](COC(=O)CCCCCCCCCCCCC)COP(=O)([O-])OCC[N+](C)(C)C [PC 14:0_18:0]
- TIMS collisional cross section (sample type: Human plasma, ion (formula + adduct): [C40H80NO8P+HCOO] 1-): 287.7 Å²

Structure (SMILES): CCCCC/C=C\C/C=C\C/C=C\C/C=C\CCCCCC(=O)O[C@H](COC(=O)CCCCCCCCCCCCCCCCC)COP(=O)([O-])OCC[N+](C)(C)C [PC 18:0_22:4]
- TIMS collisional cross section (sample type: Human plasma, ion (formula + adduct): [C48H88NO8P+HCOO] 1-): 305.1 Å²
- TIMS collisional cross section (sample type: Mouse Liver, ion (formula + adduct): [C48H88NO8P+HCOO] 1-): 304.5 Å²

Structure (SMILES): CCCC/C=C\CCCCCCCC(=O)OCC(COP(=O)(O)OC1C(O)C(O)C(O)C(O)C1O)OC(=O)CCCCCCC/C=C\C/C=C\CCCCC (stereo not drawn) [PI 14:1@_18:2]
- TIMS collisional cross section (sample type: Human plasma, ion (formula + adduct): [C41H73O13P+AcO] 1-): 287.2 Å²

Structure (SMILES): CCCCCCCCCCCCCCCCCC/C=C\OC[C@@H](O)COP(=O)(O)OCCN [LPE O- 20:0_0:0]
- TIMS collisional cross section (sample type: Human plasma, ion (formula + adduct): [C25H52NO6P-H] 1-): 223.9 Å²
- TIMS collisional cross section (sample type: Mouse Liver, ion (formula + adduct): [C25H52NO6P-H] 1-): 222.7 Å²

Structure (SMILES): C=CC(=O)O[C@H](COC(=O)CCCCCCCCCCCCCCCCC)COP(=O)([O-])OCC[N+](C)(C)C [PC 18:0_3:1@]
- TIMS collisional cross section (sample type: Mouse Liver, ion (formula + adduct): [C29H56NO8P+AcO] 1-): 260.8 Å²
- TIMS collisional cross section (sample type: Mouse Liver, ion (formula + adduct): [C29H56NO8P+HCOO] 1-): 243.4 Å²

Structure (SMILES): CCCCC/C=C\C/C=C\C/C=C\C/C=C\CCCC(=O)OC[C@H](COP(=O)(O)OC1[C@H](O)[C@H](O)C(O)[C@H](O)[C@H]1O)OC(=O)CCCCCCCCCCCCCCC (stereo partly drawn) [PI 20:4@_16:0]
- TIMS collisional cross section (sample type: Mouse Liver, ion (formula + adduct): [C45H79O13P-H] 1-): 303.5 Å²

Structure (SMILES): CCCCC/C=C\C/C=C\C/C=C\C/C=C\CCCC(=O)O[C@H](COC(=O)CCCCCCC/C=C\CCCCC)COP(=O)([O-])OCC[N+](C)(C)C [PC 15:1@_20:4]
- TIMS collisional cross section [1]: 275 Å²
- TIMS collisional cross section (sample type: Mouse Liver, ion (formula + adduct): [C43H76NO8P-H] 1-): 275.6 Å²

Structure (SMILES): CC/C=C\C/C=C\CC(O)/C=C/C=C\C/C=C\C/C=C\CCC(=O)O[C@H](CO/C=C\CCCCCCCCCCCCCC)COP(=O)(O)OCCN (stereo partly drawn) [Oxidized PE 16:0@_22:6]
- TIMS collisional cross section (sample type: Human plasma, ion (formula + adduct): [C43H74NO8P-H] 1-): 277.4 Å²

Structure (SMILES): CCCCC/C=C\C/C=C\C/C=C\C/C=C\CCCC(=O)O[C@H](COC(=O)CCCCCCCCCCCCCCCCC)COP(=O)(O)OC1C(O)C(O)C(O)[C@@H](O)C1O (stereo partly drawn) [PI 18:0_20:4]
- TIMS collisional cross section (sample type: Human plasma, ion (formula + adduct): [C47H83O13P-H] 1-): 297.6 Å²
- TIMS collisional cross section (sample type: Mouse Liver, ion (formula + adduct): [C47H83O13P-H] 1-): 297.6 Å²

Structure (SMILES): CCCCCCC/C=C\CCCCCCCC(=O)O[C@H](COC(=O)CCCCCCCCCCCCCCC)COP(=O)([O-])OCC[N+](C)(C)C [PC 16:0_17:1]
- TIMS collisional cross section (sample type: Mouse Liver, ion (formula + adduct): [C41H80NO8P+HCOO] 1-): 288.8 Å²

Further lines, results first:

- TIMS collisional cross section (sample type: Human plasma, ion (formula + adduct): [C46H82NO7P+HCOO] 1-): 296.1 Å²
Structure (SMILES): CC/C=C\C/C=C\C/C=C\C/C=C\C/C=C\CCCC(=O)O[C@H](CO/C=C\CCCCCCCCCCCCCCCC)COP(=O)([O-])OCC[N+](C)(C)C [PC P- 18:0@_20:5]

- TIMS collisional cross section (sample type: Human plasma, ion (formula + adduct): [C46H82NO8P+HCOO] 1-): 299.5 Å²
Structure (SMILES): CC/C=C\C/C=C\C/C=C\C/C=C\C/C=C\CCCC(=O)O[C@H](COC(=O)CCCCCCCCCCCCCCCCC)COP(=O)([O-])OCC[N+](C)(C)C [PC 18:0_20:5]

- TIMS collisional cross section (sample type: Mouse Liver, ion (formula + adduct): [C29H56NO8P+OAcO] 1-): 258.4 Å²
Structure (SMILES): C=CC(=O)O[C@H](COC(=O)CCCCCCCCCCCCCCCCC)COP(=O)([O-])OCC[N+](C)(C)C [PC 18:0@_3:1]

- TIMS collisional cross section (sample type: Mouse Liver, ion (formula + adduct): [C48H82NO8P+HCOO] 1-): 299.9 Å²
Structure (SMILES): CCCCC/C=C\C/C=C\C/C=C\C/C=C\C/C=C\CCC(=O)O[C@H](COC(=O)CCCCCCC/C=C\C/C=C\CCCCC)COP(=O)([O-])OCC[N+](C)(C)C [PC 18:2_22:5]

- TIMS collisional cross section (sample type: Human plasma, ion (formula + adduct): [C39H77N2O6P+HCOO] 1-): 285 Å²
Structure (SMILES): CCCCCCCC/C=C\CCCCCCCC(=O)N[C@@H](COP(=O)([O-])OCC[N+](C)(C)C)[C@H](O)/C=C/CCCCCCCCCCC [SM d16:1_18:1@]

- TIMS collisional cross section (sample type: Mouse Liver, ion (formula + adduct): [C36H72NO8P+HCOO] 1-): 277.6 Å²
Structure (SMILES): CCCCCCCCCCCCCCCCCCCC(=O)O[C@H](COC(=O)CCCCCCC)COP(=O)([O-])OCC[N+](C)(C)C [PC 8:0_20:0@]

- TIMS collisional cross section (sample type: Human plasma, ion (formula + adduct): [C45H78NO8P+AcO] 1-): 297.5 Å²
Structure (SMILES): CC/C=C\C/C=C\C/C=C\C/C=C\C/C=C\C/C=C\CCC(=O)OC(COC(=O)CCCCCCCCCCCCCCCCC)COP(=O)(O)OCCN (stereo not drawn) [PE 18:0@_22:6]

- TIMS collisional cross section (sample type: Human plasma, ion (formula + adduct): [C39H74NO8P-H] 1-): 266.6 Å²
- TIMS collisional cross section (sample type: Mouse Liver, ion (formula + adduct): [C39H74NO8P-H] 1-): 266.6 Å²
Structure (SMILES): CCCCC/C=C\C/C=C\CCCCCCCC(=O)OC(COC(=O)CCCCCCCCCCCCCCC)COP(=O)(O)OCCN (stereo not drawn) [PE 16:0_18:2]

- TIMS collisional cross section (sample type: Mouse Liver, ion (formula + adduct): [C50H78NO8P+HCOO] 1-): 300.4 Å²
Structure (SMILES): CC/C=C\C/C=C\C/C=C\C/C=C\C/C=C\C/C=C\CCC(=O)O[C@H](COC(=O)CCC/C=C\C/C=C\C/C=C\C/C=C\C/C=C\CC)COP(=O)([O-])OCC[N+](C)(C)C [PC 20:5_22:6]

- TIMS collisional cross section (sample type: Human plasma, ion (formula + adduct): [C28H48NO7P+HCOO] 1-): 242.5 Å²
- TIMS collisional cross section (sample type: Human plasma, ion (formula + adduct): [C28H48NO7P-CH3] 1-): 224.7 Å²
- TIMS collisional cross section (sample type: Mouse Liver, ion (formula + adduct): [C28H48NO7P+HCOO] 1-): 241.9 Å²
Structure (SMILES): CC/C=C\C/C=C\C/C=C\C/C=C\C/C=C\CCCC(=O)OC[C@@H](O)COP(=O)([O-])OCC[N+](C)(C)C [LPC 20:5_0:0]

- TIMS collisional cross section [1]: 276.2 Å²
Structure (SMILES): CC/C=C\C/C=C\C/C=C\C/C=C\C/C=C\CCCC(=O)OC[C@H](COP(=O)(O)OCCN)OC(=O)CCCCCCCCCCCCCCCCC [PE 20:5@_18:0]
